Source: patent US9468641B2, “Anti-inflammatory pharmaceutical composition comprising benzopyranyl tetracycles” (SEOUL NATIONAL UNIVERSITY R&DB FOUNDATION, priority 2014, dated 2016)

Assays:
purified HMGB2 protein = molecular target: T1, purified HMGB2 protein (Homo sapiens, UniProt P26583); assay: SPR (surface plasmon resonance) assay; format: binding; settings: 1, 15, 30, 50, 75, and 100 μM ICM, FIG. 13
T1 sequence (P26583 1-209): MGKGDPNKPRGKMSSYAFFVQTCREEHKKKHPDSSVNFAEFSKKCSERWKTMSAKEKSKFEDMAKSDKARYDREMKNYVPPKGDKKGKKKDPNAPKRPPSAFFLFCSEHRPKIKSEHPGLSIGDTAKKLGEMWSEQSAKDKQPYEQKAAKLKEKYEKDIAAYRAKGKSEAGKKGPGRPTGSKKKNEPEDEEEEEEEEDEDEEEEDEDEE
Experimental: To determine the dissociation constant of the interaction of ICM with HMGB, SPR analysis was performed using Biacore T100. A carboxyl group bound onto a CM5 chip of the biosensor was activated with EDC(1-ethyl-3-(3-dimethylaminopropyl)-carbodiimide) and NHS(N-hydroxysuccinimide) to form reactive succinimide ester. HMGB1 (10 mM Na-acetate, pH 4.0) and HMGB2 (10 mM Na-acetate, pH 4.5) proteins were immobilized via an amide bond onto the sensor chip, followed by quenching excess succinimide ester with 1 M ethanolamine-HCl (pH 8.0). PBS was used as a running buffer for the immobilization. After immobilization, various concentrations of ICM were injected (for 60 sec at a flow rate of 30 μl/min). […] For this, a buffer containing 10-mM HEPES (pH 7.4), 5% DMSO, 150 mM NaCl, 3 mM EDTA, and 0.005% P20 was injected. Binding was measured at 25° C. The measurements were analyzed using Biacore T100 Evaluation software (GE Healthcare). Finally, the curve was obtained by normalizing to the control. The dissociation constant was calculated by fitting the curve to the 1:1 binding model.

HMGB2 = molecular target: T2, HMGB2 (Mus musculus, UniProt P30681); assay: Pull-down assay with immunoblotting for HMGB2; format: binding; settings: ICM 20 μM as soluble competitor, ICM-BP 5 μM, FIG. 12
T2 construct: endogenous in cells
T2 sequence (P30681 1-210): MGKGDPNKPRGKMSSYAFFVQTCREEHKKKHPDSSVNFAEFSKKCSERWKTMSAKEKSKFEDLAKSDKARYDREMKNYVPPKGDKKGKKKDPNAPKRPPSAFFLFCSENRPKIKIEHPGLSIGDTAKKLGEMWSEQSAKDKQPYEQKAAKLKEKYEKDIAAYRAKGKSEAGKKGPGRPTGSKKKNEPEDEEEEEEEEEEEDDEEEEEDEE
Experimental: Cells were treated with the compounds (ICM-BP alone or ICM-BP/ICM in combination) for 30 min and then with LPS for 2 hrs. Afterwards, the cells were irradiated with 365-nm UV light for 30 min, washed with PBS and stored at −78° C. They were lysed in RIPA buffer containing a protease inhibitor cocktail, and the protein concentration was adjusted to approximately 1 mg/ml. The proteome was labeled with Cy5-azide (40 μM), TBTA (100 μM), CuSO4 (1 mM), TCEP (1 mM) and t-BuOH (5%) for 1 hrs. The mixture was treated with acetone at −20° C. for […] to precipitate proteins. After centrifugation at 4° C. and 14,000 rpm for […], the pellet was washed twice with cold acetone. For 1-D gel analysis, the pellet was dissolved in Laemmli sample buffer and analyzed by electrophoresis. For 2-D gel analysis, the pellet was dissolved in rehydration buffer. The proteome labeled with ICM-BP (test group) and the control (labeled with ICM-BP/ICM) were mixed (1:1 ratio). The mixed proteomes were analyzed by 2-D gel electrophoresis. In-gel fluorescence was scanned with a Typhoon Trio (GE Healthcare).
Cell lysates were prepared according to the same protocol used for the in-gel analysis (lyzed in RIPA buffer containing a protease inhibitor cocktail). […] Samples were boiled with Laemmli sample buffer, and analyzed by electrophoresis and immunoblotting for HMGB2.

[1] = test system: proinflammatory cytokine TNFα; assay: TNF-α ELISA of LPS-induced secretion; format: cell-based; settings: FIG. 4
Experimental: TNF-α secretion was measured using a TNF-α ELISA kit. Cells were treated with LPS in the absence or presence of ICM. After 24 hrs of incubation, the levels of TNF-α in the culture medium were measured with rat monoclonal anti-mouse TNF-α antibody as a capture antibody, and goat biotinylated polyclonal anti-mouse TNF-α antibody as a detection antibody. The biotinylated anti-TNF-α antibody was detected by sequential incubation with streptavidin-horseradish peroxidase conjugate. After incubation with a TMB substrate for 20 min, the color development was stopped by adding 2 N H2SO4. The absorbance was then read (450 nm and 540 nm) using a microplate reader.

binding to HMGB (SPR sensorgram) (purified HMGB2 protein): binds directly to HMGB
Compound: CC1(C)Oc2cc(O)ccc2C2C1=CCn1c(=O)n(-c3ccccc3)c(=O)n12 (stereo not drawn) [ICM]
competition of ICM-BP binding to HMGB2 (HMGB2): markedly lowered the level of binding for HMGB2
LPS-induced secretion of TNFα [1]: suppressed LPS-induced secretion of the proinflammatory cytokine
